Results from PubChem BioAssay (NCI).
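Values below derive from 48-hour exposures of cells grown in 96-well plates, with endpoints linearly interpolated between the two concentrations bracketing the appropriate inhibition level. The concentration for 50% growth inhibition is given as GI50. TGI is the concentration that stops growth completely.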

Experiments:
Test in all cases: NCI tumour cell line growth inhibition, 48 h
[1] = test system: 786-0 renal
[2] = test system: A498 renal
[3] = test system: A549 NSCLC
[4] = test system: ACHN renal
[5] = test system: BT-549 breast
[6] = test system: CAKI-1 renal
[7] = test system: CCRF-CEM leukemia
[8] = test system: COLO 205 colon
[9] = test system: DU-145 prostate
[10] = test system: EKVX NSCLC
[11] = test system: HCC-2998 colon
[12] = test system: HCT-116 colon
[13] = test system: HCT-15 colon
[14] = test system: HL-60(TB) leukemia
[15] = test system: HOP-62 NSCLC
[16] = test system: HOP-92 NSCLC
[17] = test system: HS 578T breast
[18] = test system: HT29 colon
[19] = test system: IGROV1 ovarian
[20] = test system: K-562 leukemia
[21] = test system: KM12 colon
[22] = test system: LOX IMVI melanoma
[23] = test system: M14 melanoma
[24] = test system: MALME-3M melanoma
[25] = test system: MCF7 breast
[26] = test system: MDA-MB-231 breast
[27] = test system: MDA-MB-435
[28] = test system: MOLT-4 leukemia
[29] = test system: NCI-H226 lung
[30] = test system: NCI-H23 lung
[31] = test system: NCI-H460 lung
[32] = test system: NCI-H522 lung
[33] = test system: NCI/ADR-RES ovarian
[34] = test system: OVCAR-3 ovarian
[35] = test system: OVCAR-4 ovarian
[36] = test system: OVCAR-5 ovarian
[37] = test system: OVCAR-8 ovarian
[38] = test system: PC-3 prostate
[39] = test system: RPMI-8226 leukemia
[40] = test system: RXF 393 renal
[41] = test system: SF-268 CNS
[42] = test system: SF-295 CNS
[43] = test system: SF-539 CNS
[44] = test system: SK-MEL-2 melanoma
[45] = test system: SK-MEL-28 melanoma
[46] = test system: SK-MEL-5 melanoma
[47] = test system: SK-OV-3 ovarian
[48] = test system: SN12C renal
[49] = test system: SNB-19 CNS
[50] = test system: SNB-75 CNS
[51] = test system: SR leukemia
[52] = test system: SW-620 colon
[53] = test system: T-47D breast
[54] = test system: TK-10 renal
[55] = test system: U251 CNS
[56] = test system: UACC-257 melanoma
[57] = test system: UACC-62 melanoma
[58] = test system: UO-31 renal

With Nc1nc2ccc(CNc3ccc(C(=O)NC(CC(=O)O)C(=O)O)cc3)cc2c(=O)[nH]1 (configuration not stated) the GI50 [1] was 2.18 µM, the TGI [1] was > 100 µM and the GI50 [2] was > 38.9 µM. For the same compound, the TGI [2] was > 100 µM, the GI50 [3] was 0.549 µM and the GI50 [4] was 3.6 µM. The TGI [4] was > 100 µM, the GI50 [5] was 4.02 µM and the TGI [5] was > 31 µM. The GI50 [6] was 1.37 µM, the TGI [6] was > 100 µM and the GI50 [7] was 4.86 µM. For the same compound, the TGI [7] was > 100 µM, the GI50 [8] was 10.7 µM and the TGI [8] was > 100 µM. For the same compound, the GI50 [9] was 1.58 µM, the TGI [9] was > 100 µM and the TGI [10] was > 100 µM. The GI50 [11] was 7.39 µM, the TGI [11] was > 100 µM and the GI50 [12] was 0.478 µM. The TGI [12] was > 100 µM, the GI50 [13] was 0.757 µM and the TGI [13] was > 100 µM. The GI50 [14] was 1.13 µM, the TGI [14] was > 100 µM and the TGI [15] was > 100 µM. For the same compound, the GI50 [16] was > 51 µM, the TGI [16] was > 100 µM and the GI50 [17] was > 64.2 µM. For the same compound, the TGI [17] was > 100 µM, the GI50 [18] was 0.67 µM and the TGI [18] was > 100 µM. The GI50 [19] was 3.32 µM, the TGI [19] was > 100 µM and the GI50 [20] was 0.437 µM. The TGI [20] was > 100 µM, the GI50 [21] was 4.3 µM and the TGI [21] was > 100 µM. For the same compound, the GI50 [22] was 0.472 µM, the TGI [22] was > 100 µM and the TGI [23] was > 100 µM. The GI50 [24] was > 33.3 µM, the TGI [24] was > 100 µM and the GI50 [25] was 1.2 µM. The TGI [25] was > 100 µM, the GI50 [26] was > 100 µM and the TGI [26] was > 100 µM. For the same compound, the GI50 [27] was 0.514 µM, the TGI [27] was > 100 µM and the GI50 [28] was 16.3 µM. For the same compound, the TGI [28] was > 100 µM, the GI50 [29] was > 65.3 µM and the TGI [29] was > 100 µM. The GI50 [30] was 5.83 µM, the TGI [30] was > 100 µM and the GI50 [31] was 0.593 µM. For the same compound, the TGI [31] was > 100 µM, the GI50 [32] was 14.4 µM and the TGI [32] was > 100 µM. The GI50 [33] was 2.71 µM, the TGI [33] was > 100 µM and the GI50 [34] was 16.2 µM. The TGI [34] was > 100 µM, the GI50 [35] was > 100 µM and the TGI [35] was > 100 µM. The GI50 [36] was > 47.2 µM, the TGI [36] was > 100 µM and the GI50 [37] was 1.16 µM. The TGI [37] was > 100 µM, the GI50 [38] was 0.655 µM and the TGI [38] was > 100 µM. The GI50 [39] was 9.23 µM, the TGI [39] was > 100 µM and the GI50 [40] was > 34.7 µM. For the same compound, the TGI [40] was > 100 µM, the GI50 [41] was 5 µM and the TGI [41] was > 100 µM. For the same compound, the GI50 [42] was 1 µM, the TGI [42] was > 28.7 µM and the GI50 [43] was 3.3 µM. The TGI [43] was > 100 µM, the GI50 [44] was > 100 µM and the TGI [44] was > 100 µM. For the same compound, the GI50 [45] was > 96 µM, the TGI [45] was > 100 µM and the GI50 [46] was 5.35 µM. The TGI [46] was > 100 µM, the GI50 [47] was > 29.1 µM and the TGI [47] was > 100 µM. The GI50 [48] was 3.86 µM, the TGI [48] was > 100 µM and the GI50 [49] was > 82.5 µM. For the same compound, the TGI [49] was > 100 µM, the GI50 [50] was > 100 µM and the TGI [50] was > 100 µM. The GI50 [51] was 0.52 µM, the TGI [51] was > 100 µM and the GI50 [52] was 0.525 µM. The TGI [52] was > 100 µM, the GI50 [53] was > 100 µM and the TGI [53] was > 100 µM. The GI50 [54] was > 100 µM, the TGI [54] was > 100 µM and the GI50 [55] was 7.49 µM. The TGI [55] was > 100 µM, the GI50 [56] was > 100 µM and the TGI [56] was > 100 µM. The GI50 [57] was 5.89 µM, the TGI [57] was > 100 µM and the GI50 [58] was 9.74 µM. For the same compound, the TGI [58] was > 100 µM.
